Measured values published in patent publication US11491224B2, “Bladder cancer photodynamic therapeutic agents with off-on magnetic resonance imaging enhancement” (Hong Kong Baptist University, priority 2018, dated 2022).
Where two headings read alike, the source gives them in different places.

Columns and labels:
[1] = tested on: T24 bladder cancer xenografts; conditions: 100 μmol/kg (0.1 mmol/kg gadolinium), tail vein injection
Procedure: MRI signal enhancement was assessed by performing in vivo MRI measurements in three BALB/c nude mice bearing T24 bladder cancer xenografts. Three tumor models were developed by subcutaneous injection of T24 bladder cancer cells. […] MR images were acquired before and after tail vein injection of 200 μl of each sample at various time points.
MR images were acquired before and after 200 μL tail vein injection of each subject at various times.

[2] = T1 and T2 relaxivity measurements; type: physicochemical
Procedure: t1 relaxivity of the proposed MR-available PDT agent—NLPor-Gd-L1Rn (n=1 to 3) was measured. […] Without wishing to be bound by theory, this difference in relaxivity could be due to the different coordinative numbers of them: for NLPor-Gd-L1Rn, (n=1 to 3) the coordinative protection for the central Gd^3+ ion is better than that of Gd-DOTA, so the Gd^3+ ion in NLPor-Gd-L1Rn (n=1 to 3) has less chance to exchange with water protons compared to Gd-DOTA. The responsive t1 of NLPor-Gd-L1Rn (n=1-3) have been evaluated with the addition of different concentrations of αvβ3 integrin. […] (FIG. 6). When the αvβ3 integrin (targeting) binding might readily interact with two molecules and affect t1 relaxivity from 2nd or outer coordination spheres. The t1 relaxivity of NLPor-Gd-L1R3 is enhanced from 0.2847 mM^−1s^−1 to 3.225 mM^−1s^−1 with the addition of αvβ3 integrin.
t1 relaxivity of the proposed MR-available PDT agent—M-NLPor-Cyc-L2An (n=1 or 2) was measured. […]
The absorption and emission spectra of Zn-NLPorB2-Cyc-Gd-L2A2 and its precursor without Gd, Zn-NLPorB2-Cyc-L2A2 were measured in aqueous solution (FIGS. 54b and 54c). […] The singlet oxygen quantum yields (ΦΔ) of Zn-NLPorB2-Cyc-Gd-L2A2 and Zn-NLPorB2-Cyc-L2A2 were measured in CHCl3 and calculated by comparing to a reference compound tetraphenylporphyrin, H2TPP, (ΦΔ=0.55 in CHCl3). […]

[3] = in PBS buffer, reference value; cited from earlier work

Row | SMILES | post-injection MRI signal enhancement [1] | post-injection MRI signal enhancement ([1]; listed as GdDOTA) | T1 relaxivity ([2]; 1.4T in water with 3% DMSO, 37° C.) | T1 relaxivity (r1) ([2]; 1.5 T in water (3% DMSO)) | singlet oxygen quantum yield of reference (ΦRB) [3]
1 | O=C([O-])CN1CCN(CC(=O)[O-])CCN(CC(=O)O)CCN(CC(=O)[O-])CC1.[Gd+3] [Gd-DOTA, reference compound] | weak post-injection signal enhancement | Weak post injection signal enhancement | 2.92 mM⁻¹ s⁻¹ | 2.92 mM⁻¹ s⁻¹ | –
2 | O=C1OC2(c3cc(I)c(O)c(I)c3Oc3c2cc(I)c(O)c3I)c2c(Cl)c(Cl)c(Cl)c(Cl)c21 [RB, Rose Bengal] | – | – | – | – | 0.75
